Experimental data taken from patent US20250032590A1, “PARATHYROID HORMONE COMPOUNDS IN THE TREATMENT OF HYPOPARATHYROIDISM” (AMOLYT PHARMA, priority 2023, published 2025).
Entries after “also recorded” stand apart in the source; their conditions may differ. No end group written: not given here.

What was measured:
[1] = tested on: PTX mice; assay: Serum calcium after single dosing in HP PTX mouse model (Example 1); type: in vivo; conditions: compared with PTH (1-34)
Description: In FIG. 1, the black line indicates the impact of PTX in mice, resulting in serum calcium levels well below normal levels.

[2] = tested on: subjects with hypoparathyroidism (HP); assay: Open-label multiple ascending dose study plus 2-month extension in subjects with hypoparathyroidism (Examples 10, 11); type: in vivo, human
Description: Part C: Part C of the assessment was an open-label multiple ascending dose (MAD) study in male or female subjects with hypoparathyroidism (HP) who are on standard or care treatment (treatment with oral calcium and active vitamin D) to evaluate the safety and tolerability, PK, and PD of AZP-3601. Up to 2 cohorts of approximately 12 patients each were planned for this part of the study. Prior to the treatment period, there was an optimization period of up to 8 weeks during which doses of oral calcium and active vitamin D were adjusted to achieve a baseline target range of albumin-corrected serum calcium (7.8 to 9.0 mg/dL, ie, 1.95 to 2.25 mmol/L) and therefore ensuring a close baseline for all patients. During this optimization period, any serum 25-hydroxy vitamin D (native vitamin D) and/or magnesium deficiencies were corrected. During the treatment period, patients in Part C received AZP-3601 for 28 days as daily sc abdominal injections (with rotation of injection sites every dosing day). Doses of oral calcium and active vitamin D supplements were reduced during the initial 14 days of treatment while maintaining albumin-corrected serum calcium in the target range (7.8 to 9.0 mg/dL, ie, 1.95 to 2.25 mmol/L). Reductions of both oral calcium and active vitamin D supplements were performed using a staged approach until the active vitamin D dose were eliminated and the oral calcium dose were reduced to or below 500 mg/day. Based on animal data, serum calcium was expected to increase progressively following repeated administration of AZP-3601 and PD steady state was expected to be observed within the first 5 days of dosing. Staggered reductions of doses of oral calcium and active vitamin D supplements were therefore performed at near-steady state based on the predose albumin-corrected serum calcium value. The following treatments are administered in Part C in an open-label fashion: • Cohort C1: multiple sc doses of 20 mg AZP-3601 (n=12) qd from Day 1 to Day 28 (dose increase of AZP-3601 to 40 mg was allowed from Day 14 onwards) • Cohort C2: multiple sc doses of a fixed dose of 10 mg AZP-3601 (n=12) qd from Day 1 to Day 28 (dose of AZP-3601 may be increased at a fixed dose of 20 mg from Day 14 onwards)
During the extension phase, patients had their AZP-3601 dose increased in increments of 10 mg to a maximum dose of 60 mg (Cohort 1) and of 80 mg (Cohort 2).
The extension phase started immediately following Day 28 visit of the Main treatment period. Patients received AZP-3601 for 56 days (2 months) as daily sc injections from Day 29 onwards (with rotation of injection sites each day of administration). The goal was to optimize AZP-3601 dosing across a dose range while doses of oral calcium and active vitamin D were as low as safely possible and albumin-corrected serum calcium was maintained within the target range of 7.8 to 9.0 mg/dL (1.95 to 2.25 mmol/L). For patients who were taking minimal or no supplemental calcium (≤500 mg/day) and no vitamin D on Day 28, the AZP-3601 dose from the previous 14 days of treatment (Part C, Main Treatment Period) was maintained and adjusted when needed during the Extension Phase. For patients who were still taking active vitamin D and/or more than 500 mg/day of oral calcium on Day 28, a progressive reduction of supplements was carried out while increasing the dose of AZP-3601. […]

[3] = tested on: non-human primates; conditions: 10.7 μg/kg or 42.7 μg/kg; cited from earlier work
[4] = tested on: TPTX rats; assay: Urinary calcium, repeated daily sc dosing in HP TPTX rat model (Example 4); type: in vivo; conditions: 30.7 μg/kg/day
Experimental: To examine the effect of repeated dosing with AZP-3601 on urinary calcium levels, TPTX rats were treated with daily subcutaneous injection of AZP-3601 with doses ranging from 3.8 to 30.7 μg/kg/day. As additional controls, separate groups of TPTX rats received daily injections of either natural PTH (1-84) or the vehicle, and a group of normal (with intact thyroid and parathyroid glands, or sham) rats were injected with vehicle. […] The observed increase in urinary calcium excretion with the high dose was a normal kidney response to clear excess blood calcium (FIG. 4).

[5] = tested on: Cynomolgus monkeys; assay: 13-week daily sc study in non-human primates: ex-vivo BMD (DXA), bone histopathology (Example 8); design: species or system cynomolgus monkey; conditions: Cynomolgus monkeys, 1, 2.5 or 10 μg/kg daily sc, 13 weeks
Experimental: (§1) To further examine the effect of chronic AZP-3601 treatment on bone, both 13-week and 39-week studies were conducted in non-human primates (NHP), which are considered a relevant species with regard to AZP-3601 effects on serum calcium. Groups of 3 or 4 Cynomolgus monkeys of each sex were given daily subcutaneous injections of either vehicle or AZP-3601 at doses of 1, 2.5 or 10 μg/kg for either 13 or 39 weeks, as outlined in Table 2.
• Ex-vivo bone mineral density (BMD) by dual-energy X-ray absorptiometry (DXA) at week 13; • Histopathological examination of bone at week 13.
(§2) At the end of the 13-week study, right femur, right tibia and the L4 lumbar vertebra were collected from 3 animals/group/sex and bone mineral density (BMD) was measured by dual-energy X-ray absorptiometry. The left femur was submitted to histopathological examination. […] In the 39-week study, blood samples were collected from 4 animals/group/sex prior to and during weeks 4, 8, 13, 26 and 39 of treatment for measurement of bone biomarkers. In-life BMD of left femur, left tibia and L4 lumbar vertebra was measured by quantitative computed tomography (qCT) prior to and during weeks 26 and 39 of treatment (FIGS. 9A, 9B, 9C, 9D, 9E and 9F). At the end of the treatment period, femurs were processed for histopathological examination.

[6] = Plasma detectability after single injection in cynomolgus monkeys; type: in vivo, cynomolgus monkey
Experimental: To further examine how the potent and sustained biological activity induced by AZP-3601 could translate into potential clinical benefit for […] patients, its activity was examined in normal cynomolgus monkeys, a species much closer to humans and the most relevant for first in human dose-selection. Single injections of AZP-3601 were administered to normal cynomolgus monkeys. […] The dissociation between pharmacokinetic profile and pharmacodynamic effect is due to the short circulating half-life of AZP-3601 as opposed to the prolonged signaling caused by AZP-3601's potent interaction with the R^0 conformation of the PTH1 receptor.

[7] = tested on: TPTX rats; assay: Serum calcium and phosphate, 28-day daily sc dosing in HP TPTX rat model (Example 2); type: in vivo; conditions: 7.7 μg/kg/day
Experimental: Thyroid-parathyroidectomized, or TPTX, rats were treated with daily subcutaneous injection of AZP-3601 at doses ranging from 3.8 μg/kg/day to 30.7 μg/kg/day. Treatment was continued for 28 days. […] The increase in calcium accumulated over time (over the first 15 to 21 days), but became more constant thereafter, indicating the development of a steady-state effect (FIG. 2). Due to the cumulative effect, lower doses of AZP-3601 were required to eventually increase blood calcium levels into the normal range as compared to the dose required with a single injection.

[8] = tested on: Cynomolgus monkeys; assay: 39-week daily sc study in non-human primates: bone biomarkers, BMD (qCT), histopathology (Example 8); type: in vivo, cynomolgus monkey
Experimental: as §1
• Serum bone biomarkers at baseline and weeks 4, 8, 13, 26 and 39; • In-life BMD by quantitative computed tomography (qCT) at baseline and weeks 26 and 39; • Histopathological examination of bone at week 39.
as §2
Prior to treatment, BMD was homogeneous among all groups for all the three bone sites examined.

[9] = HP subjects of both cohorts, 84 days
[10] = HP subjects, various bone sites, including patients with osteopenia
[11] = Cynomolgus monkeys, 1, 2.5 or 10 μg/kg daily sc, weeks 4 to 39

- half-life [1]: equally short half-life as PTH (1-34)
- bone mineral density (BMD) [2, 9]: remains stable
- trabecular bone score (TBS) [2, 9]: remains stable
- T-score [2, 10]: remain stable
- Z-score [2, 10]: remain stable
- serum calcium at the highest dose [4]: induced overt hypercalcemia
- histological examination of the femur ([8]; Cynomolgus monkeys, week 39): no noteworthy findings
Sequence: AVAEIQLMHQRAKWIQDARRRAFLHKLIAEIHTAEI [AZP-3601, M-PTH(1-14)/PTHrP(15-36)]
- mean bone markers relative to upper limit of normal ([2]; HP subjects, 84 days): never increased either mean bone marker above the upper limit of normal level
- serum calcium at highest dose levels [3]: induced significant hypercalcemia
- BMD of femur, tibia and L4 lumbar vertebra by DXA [5]: no evidence of any treatment-related effect
- histopathological examination of femur [5]: no evidence of any treatment-related effect
- detectability in plasma post-dosing [6]: detectable in plasma for only up to one hour post-dosing
- change in bone at the optimal dose [7]: without producing any significant change in bone
- anabolic bone biomarker P1NP [8, 11]: no treatment-related changes; also recorded: no significant effect on either anabolic or catabolic bone biomarkers
- catabolic bone biomarker CTx [8, 11]: no treatment-related changes; also recorded: no significant effect on either anabolic or catabolic bone biomarkers
- in-life BMD of femur, tibia and L4 lumbar vertebra by qCT ([8]; Cynomolgus monkeys, 39-week study, versus pre-treatment values): no statistically significant changes in BMD
